Laboratory results: article PMC3448615 (PLoS ONE, 2012)

Biological target: T1, Ox-R2 (orexin R2 receptor) (Homo sapiens, UniProt O43614)
T1 construct: gene HCRTR2
T1 sequence (O43614 1-444): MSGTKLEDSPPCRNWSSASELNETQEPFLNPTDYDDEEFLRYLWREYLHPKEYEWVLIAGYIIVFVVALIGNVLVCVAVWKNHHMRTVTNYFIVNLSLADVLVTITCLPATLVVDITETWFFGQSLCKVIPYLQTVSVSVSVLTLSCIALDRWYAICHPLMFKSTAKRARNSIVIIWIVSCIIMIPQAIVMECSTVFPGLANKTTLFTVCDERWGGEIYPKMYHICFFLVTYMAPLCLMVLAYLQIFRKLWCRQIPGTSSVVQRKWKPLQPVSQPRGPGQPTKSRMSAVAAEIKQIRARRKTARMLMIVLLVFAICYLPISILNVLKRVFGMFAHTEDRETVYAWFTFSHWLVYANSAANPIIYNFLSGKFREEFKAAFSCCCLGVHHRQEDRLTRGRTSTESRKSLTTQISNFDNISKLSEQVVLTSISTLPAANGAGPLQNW
Test: FLUO-3 calcium mobilization in HEK-293 cells, inhibition of […] orexin-B response
Type: cell-based

With CNC(=O)[C@@H](c1ccccc1)N1CCc2cc(OC)c(OC)cc2[C@@H]1CCc1ccc(C(F)(F)F)cc1 [almorexant] the IC50 was 332 ± 13 nM.
